Where two headings read alike, the source gives them in different places. Starred links: 1 amine or outer side, 2 acyl side, 3 side chain; linkers in the order of their positions; H or OH if unused. Positions of bridges follow the written chain, without caps; N, C: chain ends. Non-standard residues stand in square brackets, D forms with d. Residues, ends and D or L forms follow the SMILES beside them. Groups on a side chain read outwards from the residue. *: point of attachment. X6 = C[C@H](CCC(=O)O)[C@H]1CC[C@H]2[C@@H]3C(=O)C[C@@H]4CC(NCC[C@H](N[*:1])C(=O)[*:2])CC[C@]4(C)[C@H]3CC(=O)[C@]12C; X3 = C[C@H](CCC(=O)O)[C@H]1CC[C@H]2[C@@H]3C(=O)C[C@@H]4CC(NC[C@H](N[*:1])C(=O)[*:2])CC[C@]4(C)[C@H]3CC(=O)[C@]12C; X9 = C[C@H](CCC(=O)O)[C@H]1CC[C@H]2[C@@H]3C(O)C[C@@H]4CC(NCC[C@H](N[*:1])C(=O)[*:2])CC[C@]4(C)[C@H]3CC(=O)[C@]12C; X8 = C[C@H](CCC(=O)O)[C@H]1CC[C@H]2[C@@H]3C(O)C[C@@H]4CC(NC[C@H](N[*:1])C(=O)[*:2])CC[C@]4(C)[C@H]3CC(=O)[C@]12C; X26 = C[C@H](CCC(=O)O)[C@H]1CC[C@H]2[C@@H]3C(=O)C[C@@H]4CC(NCC[C@H](N[*:1])C(=O)[*:2])CC[C@]4(C)[C@H]3CC[C@]12C; X25 = C[C@H](CCC(=O)O)[C@H]1CC[C@H]2[C@@H]3C(=O)C[C@@H]4CC(NC[C@H](N[*:1])C(=O)[*:2])CC[C@]4(C)[C@H]3CC[C@]12C; X5 = CC(C)CCC[C@@H](C)[C@H]1CC[C@H]2[C@@H]3CC[C@H]4C[C@@H](NC[C@H](N[*:1])C(=O)[*:2])CC[C@]4(C)[C@H]3CC[C@]12C; X17 = C[C@H](CCC(=O)O)[C@H]1CC[C@H]2[C@@H]3CC[C@@H]4CC(NC[C@H](N[*:1])C(=O)[*:2])CC[C@]4(C)[C@H]3CC[C@]12C; Cholyl = C[C@H](CCC(=O)*)[C@H]1CC[C@H]2[C@@H]3[C@H](O)C[C@@H]4C[C@H](O)CC[C@]4(C)[C@H]3C[C@H](O)[C@]12C; X27 = O=C(Cn1cc(C[C@H](N[*:1])C(=O)[*:2])c2ccccc21)Oc1ccccc1; Trp(1-CH2COOH) = N[C@@H](Cc1cn(CC(=O)O)c2ccccc12)C(=O)O; X28 = O=C(C[C@@H](Cc1ccc(O)cc1)C(=O)[*:1])C[*:2]; Hyp = O=C(O)[C@@H]1C[C@@H](O)CN1; NMeNle = CCCC[C@H](NC)C(=O)O; NMeA = CN[C@@H](C)C(=O)O; Dab = NCC[C@H](N)C(=O)O; Dap = NC[C@H](N)C(=O)O
Molecular target: T1, PD-1/PD-L1 (Homo sapiens, UniProt Q9NZQ7)
T1 construct: TVMV protease site (C); made in house; host or cells: HEK293T cells
Experiment: PD-1/PD-L1 Homogenous Time-Resolved Fluorescence (HTRF) binding assay
Conditions: PD-1-Ig 20 nM
In short: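 Inhibitors pre-incubated 15 min with PD-L1-His (10 nM final) in dPBS, 0.1% BSA, 0.05% Tween-20, then 15 min with PD-1-Ig (20 nM final). Eu-cryptate anti-Ig (1 nM) and APC anti-His (20 nM) added, 30 min equilibration; HTRF 665/620 nm ratio. Human ECD proteins from HEK293T.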

[1] = PD-L1-His 10 nM, read-out: HTRF IC50

T1 sequence (Q9NZQ7 18-239): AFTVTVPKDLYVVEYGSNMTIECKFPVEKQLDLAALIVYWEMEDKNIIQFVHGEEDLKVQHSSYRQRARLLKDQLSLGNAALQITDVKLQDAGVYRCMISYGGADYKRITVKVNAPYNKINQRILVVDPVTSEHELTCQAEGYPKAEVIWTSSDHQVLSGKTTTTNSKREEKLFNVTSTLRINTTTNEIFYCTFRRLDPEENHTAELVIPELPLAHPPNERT

Compound | IC50 (HTRF IC50, PD-L1-His 10 nM) | IC50 [1]
CCCC[C@H]1C(=O)N(C)[C@@H](CCCC)C(=O)N[C@@H](CC(C)C)C(=O)N[C@H](C(=O)NCC(N)=O)CSCC(=O)N[C@@H](Cc2ccc(O)cc2)C(=O)N(C)[C@@H](C)C(=O)N[C@@H](CC(N)=O)C(=O)N2CCC[C@H]2C(=O)N[C@@H](CNC(=O)CNC(=O)CC[C@@H](C)[C@H]2CC[C@H]3[C@@H]4[C@H](O)C[C@@H]5C[C@H](O)CC[C@]5(C)[C@H]4C[C@H](O)[C@]23C)C(=O)N[C@@H](CC(C)C)C(=O)N2C[C@H](O)C[C@H]2C(=O)N[C@@H](Cc2c[nH]c3ccccc23)C(=O)N[C@@H](CCNC(=O)CNC(=O)CC[C@@H](C)[C@H]2CC[C@H]3[C@@H]4[C@H](O)C[C@@H]5C[C@H](O)CC[C@]5(C)[C@H]4C[C@H](O)[C@]23C)C(=O)N[C@@H](Cc2cn(CC(=O)Oc3ccccc3)c3ccccc23)C(=O)N1C [Example 2037] ({CH2CO}-Y[NMeA]NP[Dap]([Gly-Cholyl])L[Hyp]W[Dab]([Gly-Cholyl])[X27][NMeNle][NMeNle]LCG-NH2; thioether N-14) | 420 nM | –
CCCC[C@H]1C(=O)N(C)[C@@H](CCCC)C(=O)N[C@@H](CC(C)C)C(=O)N[C@H](C(=O)NCC(N)=O)CSCC(=O)N[C@@H](Cc2ccc(O)cc2)C(=O)N(C)[C@@H](C)C(=O)N[C@@H](CC(N)=O)C(=O)N2CCC[C@H]2C(=O)N[C@@H](CNC2CC[C@@]3(C)[C@@H](C2)CC(O)[C@@H]2[C@@H]3CC(=O)[C@]3(C)[C@@H]([C@H](C)CCC(=O)O)CC[C@@H]23)C(=O)N[C@@H](CC(C)C)C(=O)N2C[C@H](O)C[C@H]2C(=O)N[C@@H](Cc2c[nH]c3ccccc23)C(=O)N[C@@H](CCNC2CC[C@@]3(C)[C@@H](C2)CC(O)[C@@H]2[C@@H]3CC(=O)[C@]3(C)[C@@H]([C@H](C)CCC(=O)O)CC[C@@H]23)C(=O)N[C@@H](Cc2cn(CC(=O)O)c3ccccc23)C(=O)N1C (some centres unmarked) [Example 3001] ({CH2CO}-Y[NMeA]NP[X8]L[Hyp]W[X9][Trp(1-CH2COOH)][NMeNle][NMeNle]LCG-NH2; thioether N-14) | – | 20 nM
CCCC[C@H]1C(=O)N(C)[C@@H](CCCC)C(=O)N[C@@H](CC(C)C)C(=O)N[C@H](C(=O)NCC(N)=O)CSCC(=O)N[C@@H](Cc2ccc(O)cc2)C(=O)N(C)[C@@H](C)C(=O)N[C@@H](CC(N)=O)C(=O)N2CCC[C@H]2C(=O)N[C@@H](CNC2CC[C@@]3(C)[C@H](CC(=O)[C@@H]4[C@@H]3CC(=O)[C@]3(C)[C@@H]([C@H](C)CCC(=O)O)CC[C@@H]43)C2)C(=O)N[C@@H](CC(C)C)C(=O)N2C[C@H](O)C[C@H]2C(=O)N[C@@H](Cc2c[nH]c3ccccc23)C(=O)N[C@@H](CCNC2CC[C@@]3(C)[C@H](CC(=O)[C@@H]4[C@@H]3CC(=O)[C@]3(C)[C@@H]([C@H](C)CCC(=O)O)CC[C@@H]43)C2)C(=O)N[C@@H](Cc2cn(CC(=O)O)c3ccccc23)C(=O)N1C (some centres unmarked) [Example 3003] ({CH2CO}-Y[NMeA]NP[X3]L[Hyp]W[X6][Trp(1-CH2COOH)][NMeNle][NMeNle]LCG-NH2; thioether N-14) | – | 17 nM
CCCC[C@H]1C(=O)N(C)[C@@H](CCCC)C(=O)N[C@@H](CC(C)C)C(=O)N[C@H](C(=O)NCC(N)=O)CSCC(=O)C[C@@H](Cc2ccc(O)cc2)C(=O)N(C)[C@@H](C)C(=O)N[C@@H](CC(N)=O)C(=O)N2CCC[C@H]2C(=O)N[C@@H](CNC2CC[C@@]3(C)[C@H](CC(=O)[C@@H]4[C@@H]3CC[C@]3(C)[C@@H]([C@H](C)CCC(=O)O)CC[C@@H]43)C2)C(=O)N[C@@H](CC(C)C)C(=O)N2C[C@H](O)C[C@H]2C(=O)N[C@@H](Cc2c[nH]c3ccccc23)C(=O)N[C@@H](CCN)C(=O)N[C@@H](Cc2cn(CC(=O)O)c3ccccc23)C(=O)N1C (some centres unmarked) [Example 3004] ([NMeA]NP[X25]L[Hyp]W[Dab][Trp(1-CH2COOH)][NMeNle][NMeNle]LCG-NH2; linker N-13 via X28) | – | 41 nM
CCCC[C@H]1C(=O)N(C)[C@@H](CCCC)C(=O)N[C@@H](CC(C)C)C(=O)N[C@H](C(=O)NCC(N)=O)CSCC(=O)N[C@@H](Cc2ccc(O)cc2)C(=O)N(C)[C@@H](C)C(=O)N[C@@H](CC(N)=O)C(=O)N2CCC[C@H]2C(=O)N[C@@H](CNC2CC[C@@]3(C)[C@H](CC(=O)[C@@H]4[C@@H]3CC(=O)[C@]3(C)[C@@H]([C@H](C)CCC(=O)O)CC[C@@H]43)C2)C(=O)N[C@@H](CC(C)C)C(=O)N2C[C@H](O)C[C@H]2C(=O)N[C@@H](Cc2c[nH]c3ccccc23)C(=O)N[C@@H](CCN)C(=O)N[C@@H](Cc2cn(CC(=O)O)c3ccccc23)C(=O)N1C (some centres unmarked) [Example 3005] ({CH2CO}-Y[NMeA]NP[X3]L[Hyp]W[Dab][Trp(1-CH2COOH)][NMeNle][NMeNle]LCG-NH2; thioether N-14) | – | 13 nM
CCCC[C@H]1C(=O)N(C)[C@@H](CCCC)C(=O)N[C@@H](CC(C)C)C(=O)N[C@H](C(=O)NCC(N)=O)CSCC(=O)N[C@@H](Cc2ccc(O)cc2)C(=O)N(C)[C@@H](C)C(=O)N[C@@H](CC(N)=O)C(=O)N2CCC[C@H]2C(=O)N[C@@H](CNC2CC[C@@]3(C)[C@H](CC(=O)[C@@H]4[C@@H]3CC[C@]3(C)[C@@H]([C@H](C)CCC(=O)O)CC[C@@H]43)C2)C(=O)N[C@@H](CC(C)C)C(=O)N2C[C@H](O)C[C@H]2C(=O)N[C@@H](Cc2c[nH]c3ccccc23)C(=O)N[C@@H](CCNC2CC[C@@]3(C)[C@H](CC(=O)[C@@H]4[C@@H]3CC[C@]3(C)[C@@H]([C@H](C)CCC(=O)O)CC[C@@H]43)C2)C(=O)N[C@@H](Cc2cn(CC(=O)O)c3ccccc23)C(=O)N1C (some centres unmarked) [Example 3006] ({CH2CO}-Y[NMeA]NP[X25]L[Hyp]W[X26][Trp(1-CH2COOH)][NMeNle][NMeNle]LCG-NH2; thioether N-14) | – | 11 nM
CCCC[C@H]1C(=O)N(C)[C@@H](CCCC)C(=O)N[C@@H](CC(C)C)C(=O)N[C@H](C(=O)NCC(N)=O)CSCC(=O)N[C@@H](Cc2ccc(O)cc2)C(=O)N(C)[C@@H](C)C(=O)N[C@@H](CC(N)=O)C(=O)N2CCC[C@H]2C(=O)N[C@@H](CNC2CC[C@@]3(C)[C@H](CC[C@@H]4[C@@H]3CC[C@]3(C)[C@@H]([C@H](C)CCC(=O)O)CC[C@@H]43)C2)C(=O)N[C@@H](CC(C)C)C(=O)N2C[C@H](O)C[C@H]2C(=O)N[C@@H](Cc2c[nH]c3ccccc23)C(=O)N[C@@H](CCN)C(=O)N[C@@H](Cc2cn(CC(=O)O)c3ccccc23)C(=O)N1C (some centres unmarked) [Example 3007] ({CH2CO}-Y[NMeA]NP[X17]L[Hyp]W[Dab][Trp(1-CH2COOH)][NMeNle][NMeNle]LCG-NH2; thioether N-14) | – | 12 nM
CCCC[C@H]1C(=O)N(C)[C@@H](CCCC)C(=O)N[C@@H](CC(C)C)C(=O)N[C@H](C(=O)NCC(N)=O)CSCC(=O)N[C@@H](Cc2ccc(O)cc2)C(=O)N(C)[C@@H](C)C(=O)N[C@@H](CC(N)=O)C(=O)N2CCC[C@H]2C(=O)N[C@@H](CN[C@H]2CC[C@@]3(C)[C@@H](CC[C@@H]4[C@@H]3CC[C@]3(C)[C@@H]([C@H](C)CCCC(C)C)CC[C@@H]43)C2)C(=O)N[C@@H](CC(C)C)C(=O)N2C[C@H](O)C[C@H]2C(=O)N[C@@H](Cc2c[nH]c3ccccc23)C(=O)N[C@@H](CCN)C(=O)N[C@@H](Cc2cn(CC(=O)O)c3ccccc23)C(=O)N1C [Example 3008] ({CH2CO}-Y[NMeA]NP[X5]L[Hyp]W[Dab][Trp(1-CH2COOH)][NMeNle][NMeNle]LCG-NH2; thioether N-14) | – | 91 nM

Source: patent US20230183292A1, “IMMUNOMODULATORS” (priority 2020, published 2023)
